Drawing on article PMC8072159, “5-Bis-(2,6-difluoro-benzylidene) Cyclopentanone Acts as a Selective 11β-Hydroxysteroid Dehydrogenase one Inhibitor to Treat Diet-Induced Nonalcoholic Fatty Liver Disease in Mice” (Frontiers in Pharmacology, 2021), this text covers melting point and IC50 for 6 compounds.

In data set [1] the test system is rat 11β-HSD1. On the set-up: method as in Lin et al., 2013. The settings on record: ref Lin et al., 2013; cited from earlier work.
Data set [2] concerns human 11β-HSD1. On the set-up: method as in Lin et al., 2013. Particulars: ref Lin et al., 2013; cited from earlier work.

In general, melting point refers to the temperature, or range, at which the solid turns liquid. `O=C1/C(=C/c2cc(F)ccc2F)CC/C1=C\c1cc(F)ccc1F` [WZS07, (2E,5E)-2,5-bis(2,5-difluorobenzylidene) Cyclopentanone] had a melting point of 208.1 to 209.8 °C.
For the compound `O=C1/C(=C/c2ccc(Cl)cc2Cl)CC/C1=C\c1ccc(Cl)cc1Cl` [WZS01, (2E,5E)-2,5-bis(2,4-dichlorobenzylidene) Cyclopentanone], the melting point was in the range of 209.4 to 212 °C.
By IC50 is commonly meant the concentration that inhibits the measured activity by half. For the compound `O=C1C(=Cc2ccccc2Br)CCC1=Cc1ccccc1Br` [5-bis-(2-bromo-benzylidene) cyclopentanone], the concentration for half-maximal inhibition (IC50) in data set [1] was 148 nM; in data set [2], 346 nM.
For the compound `COc1cc(OC)c(/C=C2\CC/C(=C\c3c(OC)cc(OC)cc3OC)C2=O)c(OC)c1` [WZS05, (2E,5E)-2,5-bis(2,4,6-Trimethoxybenzylidene) Cyclopentanone], the melting point is 195 to 197.8 °C.
On the same count and under the same terms, with `O=C1/C(=C/c2cccc(Cl)c2Cl)CC/C1=C\c1cccc(Cl)c1Cl` [WZS04, (2E,5E)-2,5-bis(2,3-dichlorobenzylidene) Cyclopentanone] the figure was 204.6 to 206.8 °C.
Same read-out and setting: the figure for `Cc1ccc(/C=C2\CC/C(=C\c3ccc(C)cc3C)C2=O)c(C)c1` [WZS03, (2E,5E)-2,5-bis(2,4-dimethylbenzylidene) Cyclopentanone] is 128.8 to 131.8 °C.
